According to ChEMBL document CHEMBL1201862, “PubChem BioAssay data set” (2004):
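Protocol summary: plate cells (96-well), add compound at 5 concentrations, incubate 48 h, interpolate endpoints linearly. Abbreviation: GI50, concentration required for 50% inhibition of growth.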 Activity calls are given as the source filed them. Cut-off read from the data, not from the text of the source: active = GI50 up to about 1.1 µM and inactive = higher.

Assays:
Experiment in all cases: NCI-60 cell line screen, 48 h
786-0 = test system: 786-0
A498 = test system: A498
ACHN = test system: ACHN
CAKI-1 = test system: CAKI-1
CCRF-CEM = test system: CCRF-CEM
DU-145 = test system: DU-145
EKVX = test system: EKVX
HCC 2998 = test system: HCC 2998
HCT-116 = test system: HCT-116
HCT-15 = test system: HCT-15
HL-60 = test system: HL-60
HOP-62 = test system: HOP-62
HOP-92 = test system: HOP-92
HT-29 = test system: HT-29
Hs-578T = test system: Hs-578T
IGROV-1 = test system: IGROV-1
K562 = test system: K562
KM12 = test system: KM12
LOX IMVI = test system: LOX IMVI
M14 = test system: M14
MCF7 = test system: MCF7
MDA-MB-231 = test system: MDA-MB-231
MDA-MB-435 = test system: MDA-MB-435
MDA-N = test system: MDA-N
MOLT-4 = test system: MOLT-4
NCI-H226 = test system: NCI-H226
NCI-H23 = test system: NCI-H23
NCI-H460 = test system: NCI-H460
NCI-H522 = test system: NCI-H522
NCI/ADR-RES = test system: NCI/ADR-RES
OVCAR-3 = test system: OVCAR-3
OVCAR-4 = test system: OVCAR-4
OVCAR-5 = test system: OVCAR-5
OVCAR-8 = test system: OVCAR-8
PC-3 = test system: PC-3
RPMI-8226 = test system: RPMI-8226
RXF 393 = test system: RXF 393
SF-268 = test system: SF-268
SF-295 = test system: SF-295
SF-539 = test system: SF-539
SK-MEL-28 = test system: SK-MEL-28
SK-MEL-2 = test system: SK-MEL-2
SK-MEL-5 = test system: SK-MEL-5
SK-OV-3 = test system: SK-OV-3
SNB-75 = test system: SNB-75
SR = test system: SR
SW-620 = test system: SW-620
T47D = test system: T47D
TK-10 = test system: TK-10
U-251 = test system: U-251
UACC-257 = test system: UACC-257
UO-31 = test system: UO-31
A549 = test system: A549
COLO 205 = test system: COLO 205
Malme-3M = test system: Malme-3M
SN12C = test system: SN12C
SNB-19 = test system: SNB-19
UACC-62 = test system: UACC-62

Compound: CCOc1cc(/C=C2\N=C(c3ccccc3)N(c3nc4ccccc4s3)C2=O)ccc1O
- GI50 (786-0): 61.1 µM (inactive)
- GI50 (A498): 45.4 µM (inactive)
- GI50 (ACHN): 37.3 µM (inactive)
- GI50 (CAKI-1): 39.9 µM (inactive)
- GI50 (CCRF-CEM): 34.3 µM (inactive)
- GI50 (DU-145): 45.1 µM (inactive)
- GI50 (EKVX): > 100 µM (inactive)
- GI50 (HCC 2998): 25.1 µM (inactive)
- GI50 (HCT-116): 42.3 µM (inactive)
- GI50 (HCT-15): 24.5 µM
- GI50 (HL-60): 27.9 µM (inactive)
- GI50 (HOP-62): 75 µM (inactive)
- GI50 (HOP-92): > 100 µM (inactive)
- GI50 (HT-29): 64.1 µM (inactive)
- GI50 (Hs-578T): 29 µM (inactive)
- GI50 (IGROV-1): 28.6 µM (inactive)
- GI50 (K562): 27.9 µM (inactive)
- GI50 (KM12): 48.8 µM (inactive)
- GI50 (LOX IMVI): 37.2 µM (inactive)
- GI50 (M14): 44.9 µM (inactive)
- GI50 (MCF7): 33.3 µM (inactive)
- GI50 (MDA-MB-231): > 100 µM (inactive)
- GI50 (MDA-MB-435): 40.1 µM (inactive)
- GI50 (MDA-N): 31.3 µM (inactive)
- GI50 (MOLT-4): 19.5 µM (inactive)
- GI50 (NCI-H226): 59.8 µM (inactive)
- GI50 (NCI-H23): 21.7 µM (inactive)
- GI50 (NCI-H460): 29.2 µM (inactive)
- GI50 (NCI-H522): 23.7 µM (inactive)
- GI50 (NCI/ADR-RES): 24.3 µM (inactive)
- GI50 (OVCAR-3): 46.8 µM (inactive)
- GI50 (OVCAR-4): 48.3 µM (inactive)
- GI50 (OVCAR-5): > 100 µM (inactive)
- GI50 (OVCAR-8): 34.7 µM (inactive)
- GI50 (PC-3): 27.9 µM (inactive)
- GI50 (RPMI-8226): 21.6 µM (inactive)
- GI50 (RXF 393): > 100 µM (inactive)
- GI50 (SF-268): 42 µM (inactive)
- GI50 (SF-295): 80.2 µM (inactive)
- GI50 (SF-539): 50 µM (inactive)
- GI50 (SK-MEL-28): 64.4 µM (inactive)
- GI50 (SK-MEL-2): 23.8 µM (inactive)
- GI50 (SK-MEL-5): 18.5 µM (inactive)
- GI50 (SK-OV-3): > 100 µM (inactive)
- GI50 (SNB-75): 51.2 µM (inactive)
- GI50 (SR): 29.9 µM (inactive)
- GI50 (SW-620): 47.9 µM (inactive)
- GI50 (T47D): 40.6 µM (inactive)
- GI50 (TK-10): 56.9 µM (inactive)
- GI50 (U-251): 47.9 µM (inactive)
- GI50 (UACC-257): 48.8 µM (inactive)
- GI50 (UO-31): 49 µM (inactive)

Compound: COc1ccc2c(c[n+](C)c3c4cc5c(cc4ccc23)OCO5)c1OC
- GI50 (DU-145): > 100 µM (inactive)
- GI50 (Hs-578T): 80.4 µM (inactive)
- GI50 (MCF7): 9.55 µM (inactive)
- GI50 (MDA-MB-231): > 100 µM (inactive)
- GI50 (MDA-MB-435): 19.3 µM (inactive)
- GI50 (MDA-N): 16.7 µM (inactive)
- GI50 (NCI/ADR-RES): 34.8 µM (inactive)
- GI50 (PC-3): 41.7 µM (inactive)
- GI50 (RXF 393): > 100 µM (inactive)
- GI50 (T47D): > 100 µM (inactive)

Compound: CCCCCCCCCCCCCCCCCCOC[C@H](COP(=O)(O)O[C@H]1[C@H](O)[C@@H](O)[C@H](O)C[C@H]1O)OC
- GI50 (RPMI-8226): 11.8 µM (inactive)
- GI50 (SNB-75): 13 µM (inactive)
- GI50 (SR): 12.1 µM (inactive)

Compound: N=C(N)SCCc1ccccn1
- GI50 (786-0): > 100 µM (inactive)
- GI50 (A549): > 100 µM (inactive)
- GI50 (ACHN): > 100 µM (inactive)
- GI50 (CCRF-CEM): > 100 µM (inactive)
- GI50 (COLO 205): > 100 µM (inactive)
- GI50 (EKVX): > 100 µM (inactive)
- GI50 (HCT-116): > 100 µM (inactive)
- GI50 (HCT-15): > 100 µM
- GI50 (HL-60): > 100 µM (inactive)
- GI50 (HOP-62): > 100 µM (inactive)
- GI50 (HOP-92): > 100 µM (inactive)
- GI50 (IGROV-1): > 100 µM (inactive)
- GI50 (KM12): > 100 µM (inactive)
- GI50 (LOX IMVI): > 100 µM (inactive)
- GI50 (M14): > 100 µM (inactive)
- GI50 (MOLT-4): > 100 µM (inactive)
- GI50 (Malme-3M): > 100 µM (inactive)
- GI50 (NCI-H226): > 100 µM (inactive)
- GI50 (NCI-H460): > 100 µM (inactive)
- GI50 (NCI-H522): > 100 µM (inactive)
- GI50 (OVCAR-3): > 100 µM (inactive)
- GI50 (OVCAR-4): > 100 µM (inactive)
- GI50 (OVCAR-5): > 100 µM (inactive)
- GI50 (OVCAR-8): > 100 µM (inactive)
- GI50 (RPMI-8226): > 100 µM (inactive)
- GI50 (RXF 393): > 100 µM (inactive)
- GI50 (SF-268): > 100 µM (inactive)
- GI50 (SF-539): > 100 µM (inactive)
- GI50 (SK-MEL-28): > 100 µM (inactive)
- GI50 (SK-MEL-2): > 100 µM (inactive)
- GI50 (SK-MEL-5): > 100 µM (inactive)
- GI50 (SK-OV-3): > 100 µM (inactive)
- GI50 (SN12C): > 100 µM (inactive)
- GI50 (SNB-19): > 100 µM (inactive)
- GI50 (SW-620): > 100 µM (inactive)
- GI50 (T47D): > 100 µM (inactive)
- GI50 (U-251): > 100 µM (inactive)
- GI50 (UACC-62): > 100 µM (inactive)
- GI50 (UO-31): > 100 µM (inactive)

Compound: Oc1ccc(O)c(Cc2ccccc2)c1
- GI50 (786-0): 14.7 µM (inactive)
- GI50 (A498): 43.9 µM (inactive)
- GI50 (A549): 37.2 µM (inactive)
- GI50 (ACHN): 14.8 µM (inactive)
- GI50 (CCRF-CEM): 7.41 µM (inactive)
- GI50 (COLO 205): 17.4 µM (inactive)
- GI50 (DU-145): 6.27 µM (inactive)
- GI50 (EKVX): 38.5 µM (inactive)
- GI50 (HCC 2998): 93.1 µM (inactive)
- GI50 (HCT-15): 13.6 µM
- GI50 (HL-60): 1.52 µM (inactive)
- GI50 (HOP-62): 27.9 µM (inactive)
- GI50 (HOP-92): 16.3 µM (inactive)
- GI50 (HT-29): 37 µM (inactive)
- GI50 (Hs-578T): 31.9 µM (inactive)
- GI50 (K562): 10.6 µM (inactive)
- GI50 (KM12): 19.1 µM (inactive)
- GI50 (LOX IMVI): 18.6 µM (inactive)
- GI50 (M14): 23.5 µM (inactive)
- GI50 (MCF7): 15 µM (inactive)
- GI50 (MDA-MB-231): 19 µM (inactive)
- GI50 (MDA-MB-435): 19.5 µM (inactive)
- GI50 (MDA-N): 18 µM (inactive)
- GI50 (MOLT-4): 6.7 µM (inactive)
- GI50 (Malme-3M): 26.4 µM (inactive)
- GI50 (NCI-H226): 19.6 µM (inactive)
- GI50 (NCI-H23): 26.4 µM (inactive)
- GI50 (NCI-H460): 20.7 µM (inactive)
- GI50 (NCI/ADR-RES): 16.4 µM (inactive)
- GI50 (OVCAR-3): 1.07 µM (active)
- GI50 (OVCAR-4): 14.2 µM (inactive)
- GI50 (OVCAR-5): 57.5 µM (inactive)
- GI50 (OVCAR-8): 15.4 µM (inactive)
- GI50 (PC-3): 27.9 µM (inactive)
- GI50 (RPMI-8226): 3.61 µM (inactive)
- GI50 (SF-268): 12.5 µM (inactive)
- GI50 (SF-295): 56.1 µM (inactive)
- GI50 (SF-539): 10.7 µM (inactive)
- GI50 (SK-MEL-28): 33.7 µM (inactive)
- GI50 (SK-MEL-2): 18.7 µM (inactive)
- GI50 (SK-MEL-5): 17.3 µM (inactive)
- GI50 (SK-OV-3): 32.8 µM (inactive)
- GI50 (SN12C): 18.4 µM (inactive)
- GI50 (SNB-19): 53.1 µM (inactive)
- GI50 (SR): 2.32 µM (inactive)
- GI50 (SW-620): 21.3 µM (inactive)
- GI50 (T47D): 0.0887 µM (active)
- GI50 (TK-10): 21.7 µM (inactive)
- GI50 (U-251): 20.1 µM (inactive)
- GI50 (UACC-257): 25.9 µM (inactive)
- GI50 (UACC-62): 20.2 µM (inactive)
- GI50 (UO-31): 15.1 µM (inactive)
